# Earlier results as cited in patent US6559178B1 (priority 2002, dated 2003).
# Tested on: cancer
# Details: Phase II testing
compound,measurement,value
CC(=O)OC[C@]12CCC(C)=C[C@H]1O[C@@H]1[C@H](O)[C@@H](OC(C)=O)[C@@]2(C)[C@]12CO2 [Anguidine],hematologic toxicity,considerable hematologic toxicity
same,tumor response,low tumor response
